# Measured values published in PubChem BioAssay AID1259407 (Chemical Carcinogenesis Research Information System (CCRIS), 2018).
# Activity calls are given as the source filed them. No rule for the calls is given here.
# Tested on: CCRIS mutagenicity, Ames/micronucleus/aberration tests
# Assay: CCRIS mutagenicity studies
# [1] = Test System: AMES SALMONELLA TYPHIMURIUM, Strain/Indicator: TA98, Metabolic Activation: NONE, Method: PREINCUBATION
# [2] = Test System: AMES SALMONELLA TYPHIMURIUM, Strain/Indicator: TA100, Metabolic Activation: NONE, Method: PREINCUBATION
structure (smiles),measurement,setting,value
O=CC(O)C(O)C(O)CO (configuration not stated),mutagenic call,"Test System: AMES SALMONELLA TYPHIMURIUM, Strain/Indicator: TA98, Metabolic Activation: NONE, Method: STANDARD PLATE",inactive; negative
same,mutagenic call,"Test System: AMES SALMONELLA TYPHIMURIUM, Strain/Indicator: TA98, Metabolic Activation: RAT, LIVER, S-9, AROCLOR 1254, Method: STANDARD PLATE",inactive; negative
same,mutagenic call,"Test System: AMES SALMONELLA TYPHIMURIUM, Strain/Indicator: TA100, Metabolic Activation: NONE, Method: STANDARD PLATE",inactive; negative
same,mutagenic call,"Test System: AMES SALMONELLA TYPHIMURIUM, Strain/Indicator: TA100, Metabolic Activation: RAT, LIVER, S-9, AROCLOR 1254, Method: STANDARD PLATE",inactive; negative
same,mutagenic call,"Test System: AMES SALMONELLA TYPHIMURIUM, Strain/Indicator: TA1535, Metabolic Activation: NONE, Method: STANDARD PLATE",inactive; negative
same,mutagenic call,"Test System: AMES SALMONELLA TYPHIMURIUM, Strain/Indicator: TA1535, Metabolic Activation: RAT, LIVER, S-9, AROCLOR 1254, Method: STANDARD PLATE",inactive; negative
same,mutagenic call,"Test System: AMES SALMONELLA TYPHIMURIUM, Strain/Indicator: TA1537, Metabolic Activation: NONE, Method: STANDARD PLATE",inactive; negative
same,mutagenic call,"Test System: AMES SALMONELLA TYPHIMURIUM, Strain/Indicator: TA1537, Metabolic Activation: RAT, LIVER, S-9, AROCLOR 1254, Method: STANDARD PLATE",inactive; negative
same,mutagenic call,"Test System: AMES SALMONELLA TYPHIMURIUM, Strain/Indicator: TA1538, Metabolic Activation: NONE, Method: STANDARD PLATE",inactive; negative
same,mutagenic call,"Test System: AMES SALMONELLA TYPHIMURIUM, Strain/Indicator: TA1538, Metabolic Activation: RAT, LIVER, S-9, AROCLOR 1254, Method: STANDARD PLATE",inactive; negative
same,mutagenic call,"Test System: E. COLI, Strain/Indicator: WP2, Metabolic Activation: NONE, Method: STANDARD PLATE",inactive; negative
same,mutagenic call,"Test System: E. COLI, Strain/Indicator: WP2, Metabolic Activation: RAT, LIVER, S-9, AROCLOR 1254, Method: STANDARD PLATE",inactive; negative
c1cc2cnncc2cn1,mutagenic call,[1],inactive; negative
same,mutagenic call,"Test System: AMES SALMONELLA TYPHIMURIUM, Strain/Indicator: TA98, Metabolic Activation: RAT, LIVER, S-9, PCB, Method: PREINCUBATION",inactive; negative
same,mutagenic call,[2],inactive; negative
same,mutagenic call,"Test System: AMES SALMONELLA TYPHIMURIUM, Strain/Indicator: TA100, Metabolic Activation: RAT, LIVER, S-9, PCB, Method: PREINCUBATION",inactive; negative
O=C(O)c1cc2ccccc2cc1O,mutagenic call,"End Point: In vitro chromosomal aberrations, Test System: Chinese hamster lung (CHL/IU) cells, Metabolic Activation: Rat, Liver, S9, Phenobarbital and 5,6-benzoflavone",active; positive (structural changes and ploidy). precipitation of test chemical at 1.0
same,mutagenic call,[1],inactive; negative
same,mutagenic call,"Test System: AMES SALMONELLA TYPHIMURIUM, Strain/Indicator: TA98, Metabolic Activation: RAT LIVER S-9, PHENOBARBITAL AND BETA-NAPHTHOFLAVONE, Method: PREINCUBATION",inactive; negative
same,mutagenic call,"Test System: AMES SALMONELLA TYPHIMURIUM, Strain/Indicator: TA98, Metabolic Activation: RAT, LIVER, S-9, KC 500, Method: PREINCUBATION",inactive; negative
same,mutagenic call,[2],inactive; negative
same,mutagenic call,"Test System: AMES SALMONELLA TYPHIMURIUM, Strain/Indicator: TA100, Metabolic Activation: RAT LIVER S-9, PHENOBARBITAL AND BETA-NAPHTHOFLAVONE, Method: PREINCUBATION",inactive; negative
same,mutagenic call,"Test System: AMES SALMONELLA TYPHIMURIUM, Strain/Indicator: TA100, Metabolic Activation: RAT, LIVER, S-9, KC 500, Method: PREINCUBATION",inactive; negative
same,mutagenic call,"Test System: AMES SALMONELLA TYPHIMURIUM, Strain/Indicator: TA1535, Metabolic Activation: NONE, Method: PREINCUBATION",inactive; negative
same,mutagenic call,"Test System: AMES SALMONELLA TYPHIMURIUM, Strain/Indicator: TA1535, Metabolic Activation: RAT LIVER S-9, PHENOBARBITAL AND BETA-NAPHTHOFLAVONE, Method: PREINCUBATION",inactive; negative
same,mutagenic call,"Test System: AMES SALMONELLA TYPHIMURIUM, Strain/Indicator: TA1535, Metabolic Activation: RAT, LIVER, S-9, KC 500, Method: PREINCUBATION",inactive; negative
same,mutagenic call,"Test System: AMES SALMONELLA TYPHIMURIUM, Strain/Indicator: TA1537, Metabolic Activation: RAT LIVER S-9, PHENOBARBITAL AND BETA-NAPHTHOFLAVONE, Method: PREINCUBATION",inactive; negative
same,mutagenic call,"Test System: AMES SALMONELLA TYPHIMURIUM, Strain/Indicator: TA1537, Metabolic Activation: RAT, LIVER, S-9, KC 500, Method: PREINCUBATION",inactive; negative
same,mutagenic call,"Test System: AMES SALMONELLA TYPHIMURIUM, Strain/Indicator: TA1538, Metabolic Activation: NONE, Method: PREINCUBATION",inactive; negative
same,mutagenic call,"Test System: AMES SALMONELLA TYPHIMURIUM, Strain/Indicator: TA1538, Metabolic Activation: RAT LIVER S-9, PHENOBARBITAL AND BETA-NAPHTHOFLAVONE, Method: PREINCUBATION",inactive; negative
same,mutagenic call,"Test System: AMES SALMONELLA TYPHIMURIUM, Strain/Indicator: TA1538, Metabolic Activation: RAT, LIVER, S-9, KC 500, Method: PREINCUBATION",inactive; negative
same,mutagenic call,"Test System: E. COLI, Strain/Indicator: WP2UVRA/PKM101, Metabolic Activation: NONE, Method: PREINCUBATION",inactive; negative
same,mutagenic call,"Test System: E. COLI, Strain/Indicator: WP2UVRA/PKM101, Metabolic Activation: RAT LIVER S-9, PHENOBARBITAL AND BETA-NAPHTHOFLAVONE, Method: PREINCUBATION",inactive; negative
same,mutagenic call,"Test System: E. COLI, Strain/Indicator: WP2 UVRA, Metabolic Activation: NONE, Method: PREINCUBATION",inactive; negative
same,mutagenic call,"Test System: E. COLI, Strain/Indicator: WP2UVRA, Metabolic Activation: NONE, Method: PREINCUBATION",inactive; negative
same,mutagenic call,"Test System: E. COLI, Strain/Indicator: WP2UVRA, Metabolic Activation: RAT LIVER S-9, PHENOBARBITAL AND BETA-NAPHTHOFLAVONE, Method: PREINCUBATION",inactive; negative
same,mutagenic call,"Test System: E. COLI, Strain/Indicator: WP2 UVRA, Metabolic Activation: RAT, LIVER, S-9, KC 500, Method: PREINCUBATION",inactive; negative
